According to ChEMBL document CHEMBL1130091, “Synthesis and cytotoxic evaluation of substituted sulfonyl-N-hydroxyguanidine derivatives as potential antitumor agents” (J Med Chem, 1997):
≈ marks a conversion by molar mass, not a printed value.

Assays:
HepG2 = experiment: Cytotoxic activity against human tumor HepG2 cell line; type: functional, cell-based
KB = experiment: Cytotoxic activity against human tumor KB cell line; type: functional, cell-based
TSGH 8302 = experiment: Cytotoxic activity against human tumor TSGH 8302 cell line; type: functional, cell-based
COLO 205 = experiment: Cytotoxic activity against human tumor COLO 205 cell line; type: functional, cell-based
MOLT-4 [1] = experiment: Cytotoxic Activity against human tumor MOLT-4 cell line with 20 micro g/mL; type: functional
MOLT-4 [2] = experiment: Cytotoxic Activity against human tumor MOLT-4 cell line; type: functional, cell-based
Mus musculus [3] = experiment: Antitumor activity against Murine K1735/M2 Melanoma xenograft expressed as body weight change from day 0 to 20 in mice at dose of 300 mg/kg oral administration; type: functional
Mus musculus [4] = experiment: Tumor growth inhibition determined at day 20 after tumor transplantation in mice at dose of 300 mg/kg oral administration; type: functional; settings: 480 h

SMILES: O=[N+]([O-])c1cccc(Cl)c1Oc1ccc(S(=O)(=O)N/C(=N\O)Nc2ccc(Cl)cc2)cc1
- IC50 (HepG2): > 100 µg/mL
- IC50 (KB): 83 µg/mL (≈ 167 µM)
- IC50 (TSGH 8302): 53 µg/mL (≈ 107 µM)
- IC50 (COLO 205): > 100 µg/mL

SMILES: Cc1ccc(S(=O)(=O)/N=C(\S)Nc2ccc(Cl)cc2)cc1
- IC50 (HepG2): 232 µg/mL (≈ 681 µM)
- Inhibition (MOLT-4 [1]): 59%
- IC50 (KB): 80 µg/mL (≈ 235 µM)
- IC50 (TSGH 8302): 125 µg/mL (≈ 367 µM)
- IC50 (COLO 205): 87 µg/mL (≈ 255 µM)

SMILES: O=S(=O)(NC(=S)Nc1ccc(Cl)cc1)c1cc(S(=O)(=O)c2ccccc2)cs1
- IC50 (HepG2): 214 µg/mL (≈ 452 µM)
- IC50 (KB): 196 µg/mL (≈ 414 µM)
- IC50 (TSGH 8302): 217 µg/mL (≈ 459 µM)
- IC50 (COLO 205): 220 µg/mL (≈ 465 µM)

SMILES: O=[N+]([O-])c1ccc(Oc2c(Cl)cc(S(=O)(=O)N/C(=N\O)Nc3ccc(Cl)cc3)cc2Cl)cc1
- IC50 (MOLT-4 [2]): 55 µg/mL (≈ 103 µM)
- IC50 (HepG2): 22 µg/mL (≈ 41.4 µM)
- IC50 (KB): 12 µg/mL (≈ 22.6 µM)
- IC50 (TSGH 8302): 7 µg/mL (≈ 13.2 µM)
- IC50 (COLO 205): 12 µg/mL (≈ 22.6 µM)

SMILES: O=S(=O)(N/C(=N\O)Nc1ccc(Cl)cc1)c1cccc2snnc12
- IC50 (MOLT-4 [2]): 33 µg/mL (≈ 86 µM)
- IC50 (HepG2): 45 µg/mL (≈ 117 µM)
- IC50 (KB): 35 µg/mL (≈ 91.2 µM)
- IC50 (TSGH 8302): 93 µg/mL (≈ 242 µM)
- IC50 (COLO 205): 87 µg/mL (≈ 227 µM)

SMILES: Cc1ccc(S(=O)(=O)N/C(=N\O)Nc2ccc(Cl)c(Cl)c2)cc1
- IC50 (MOLT-4 [2]): 7 µg/mL (≈ 18.7 µM)
- IC50 (HepG2): 72 µg/mL (≈ 192 µM)
- IC50 (KB): 8 µg/mL (≈ 21.4 µM)
- IC50 (TSGH 8302): 67 µg/mL (≈ 179 µM)
- IC50 (COLO 205): 10 µg/mL (≈ 26.7 µM)

SMILES: Cc1c(S(=O)(=O)/N=C(\S)Nc2ccc(Cl)cc2)sc2ccc(Cl)cc12
- IC50 (HepG2): 57 µg/mL (≈ 132 µM)
- Inhibition (MOLT-4 [1]): 12%
- IC50 (KB): 61 µg/mL (≈ 141 µM)
- IC50 (TSGH 8302): 55 µg/mL (≈ 127 µM)
- IC50 (COLO 205): 52 µg/mL (≈ 121 µM)

SMILES: O=S(=O)(N/C(=N\O)Nc1ccc(Cl)cc1)c1cc2ccccc2o1
- IC50 (HepG2): > 200 µg/mL
- IC50 (KB): 67 µg/mL (≈ 183 µM)
- IC50 (COLO 205): > 200 µg/mL

SMILES: O=S(=O)(N/C(=N\O)Nc1ccc(Cl)cc1)c1cc(S(=O)(=O)c2ccccc2)cs1
- IC50 (MOLT-4 [2]): 22 µg/mL (≈ 46.6 µM)
- IC50 (HepG2): 175 µg/mL (≈ 371 µM)
- IC50 (KB): 10 µg/mL (≈ 21.2 µM)
- IC50 (TSGH 8302): 37 µg/mL (≈ 78.4 µM)
- IC50 (COLO 205): 45 µg/mL (≈ 95.3 µM)

SMILES: Cc1ccc(S(=O)(=O)N/C(=N\O)Nc2ccc(Cl)cc2)cc1
- IC50 (MOLT-4 [2]): 6 µg/mL (≈ 17.7 µM)
- IC50 (HepG2): 49 µg/mL (≈ 144 µM)
- IC50 (KB): 46 µg/mL (≈ 135 µM)
- IC50 (TSGH 8302): 46 µg/mL (≈ 135 µM)
- IC50 (COLO 205): 58 µg/mL (≈ 171 µM)

SMILES: O=S(=O)(NC(=S)Nc1ccc(Cl)cc1)c1ccccc1
- IC50 (HepG2): > 300 µg/mL
- Inhibition (MOLT-4 [1]): 63%
- IC50 (KB): 66 µg/mL (≈ 202 µM)
- IC50 (TSGH 8302): > 300 µg/mL
- IC50 (COLO 205): 91 µg/mL (≈ 278 µM)

SMILES: O=S(=O)(N/C(=N\O)Nc1ccc(Cl)cc1)c1cc(C(F)(F)F)cc(C(F)(F)F)c1
- IC50 (MOLT-4 [2]): 44 µg/mL (≈ 95.3 µM)
- IC50 (HepG2): 233 µg/mL (≈ 505 µM)
- IC50 (KB): 57 µg/mL (≈ 123 µM)
- IC50 (TSGH 8302): 66 µg/mL (≈ 143 µM)
- IC50 (COLO 205): 58 µg/mL (≈ 126 µM)

SMILES: N#Cc1c(Cl)cccc1Oc1ccc(S(=O)(=O)N/C(=N\O)Nc2ccc(Cl)cc2)cc1
- IC50 (MOLT-4 [2]): 95 µg/mL (≈ 199 µM)
- IC50 (HepG2): > 300 µg/mL
- IC50 (KB): 39 µg/mL (≈ 81.7 µM)
- IC50 (TSGH 8302): 168 µg/mL (≈ 352 µM)
- IC50 (COLO 205): 178 µg/mL (≈ 373 µM)

SMILES: O=S(=O)(N/C(=N\O)Nc1ccc(Cl)cc1)c1cc(-c2ccsc2)no1
- IC50 (MOLT-4 [2]): 9 µg/mL (≈ 22.6 µM)
- IC50 (HepG2): > 300 µg/mL
- IC50 (KB): 55 µg/mL (≈ 138 µM)
- IC50 (TSGH 8302): 149 µg/mL (≈ 374 µM)
- IC50 (COLO 205): 52 µg/mL (≈ 130 µM)

SMILES: Cc1ccc(S(=O)(=O)NC(=O)Nc2ccc(Cl)cc2)cc1 [LY-181984]
- IC50 (HepG2): > 300 µg/mL
- Inhibition (MOLT-4 [1]): 33%
- IC50 (KB): 72 µg/mL (≈ 222 µM)
- IC50 (TSGH 8302): 106 µg/mL (≈ 326 µM)
- IC50 (COLO 205): 83 µg/mL (≈ 256 µM)
- Body weight change (Mus musculus [3]): -1.2 g
- inhibition in vivo at 300 mg/kg (Mus musculus [4]): 64.7%

SMILES: Cc1c(S(=O)(=O)/N=C(\S)Nc2ccc(Cl)c(Cl)c2)sc2ccc(Cl)cc12
- IC50 (HepG2): 62 µg/mL (≈ 133 µM)
- Inhibition (MOLT-4 [1]): 65%
- IC50 (KB): 25 µg/mL (≈ 53.7 µM)
- IC50 (TSGH 8302): 59 µg/mL (≈ 127 µM)
- IC50 (COLO 205): 57 µg/mL (≈ 122 µM)

SMILES: O=S(=O)(N/C(=N\O)Nc1ccc(Cl)cc1)c1ccc(S(=O)(=O)c2ccccc2)s1
- IC50 (HepG2): 92 µg/mL (≈ 195 µM)
- IC50 (KB): 29 µg/mL (≈ 61.4 µM)
- IC50 (TSGH 8302): 41 µg/mL (≈ 86.9 µM)
- IC50 (COLO 205): 59 µg/mL (≈ 125 µM)

SMILES: Cc1c(S(=O)(=O)N/C(=N\O)Nc2ccc(Cl)cc2)sc2ccc(Cl)cc12
- IC50 (MOLT-4 [2]): 38 µg/mL (≈ 88.3 µM)
- IC50 (HepG2): 140 µg/mL (≈ 325 µM)
- IC50 (KB): 29 µg/mL (≈ 67.4 µM)
- IC50 (TSGH 8302): 44 µg/mL (≈ 102 µM)
- IC50 (COLO 205): 60 µg/mL (≈ 139 µM)

SMILES: Cc1c(S(=O)(=O)N/C(=N\O)Nc2ccc(Cl)c(Cl)c2)sc2ccc(Cl)cc12
- IC50 (MOLT-4 [2]): > 300 µg/mL
- IC50 (HepG2): > 300 µg/mL
- IC50 (KB): > 300 µg/mL
- IC50 (TSGH 8302): > 300 µg/mL
- IC50 (COLO 205): > 300 µg/mL

SMILES: O=S(=O)(NC(=S)Nc1ccc(Cl)cc1)c1cccc2snnc12
- IC50 (HepG2): 124 µg/mL (≈ 322 µM)
- Inhibition (MOLT-4 [1]): 55%
- IC50 (KB): 63 µg/mL (≈ 164 µM)
- IC50 (TSGH 8302): 42 µg/mL (≈ 109 µM)
- IC50 (COLO 205): 50 µg/mL (≈ 130 µM)

SMILES: O=S(=O)(N/C(=N\O)Nc1ccc(Cl)cc1)c1ccc(-c2cccs2)cn1
- IC50 (MOLT-4 [2]): 75 µg/mL (≈ 183 µM)
- IC50 (HepG2): 121 µg/mL (≈ 296 µM)
- IC50 (KB): 61 µg/mL (≈ 149 µM)
- IC50 (TSGH 8302): 208 µg/mL (≈ 509 µM)
- IC50 (COLO 205): 74 µg/mL (≈ 181 µM)

SMILES: O=S(=O)(NC(=S)Nc1ccc(Cl)cc1)c1ccc(S(=O)(=O)c2ccccc2)s1
- IC50 (HepG2): 216 µg/mL (≈ 457 µM)
- Inhibition (MOLT-4 [1]): 59%
- IC50 (KB): 66 µg/mL (≈ 140 µM)
- IC50 (TSGH 8302): 79 µg/mL (≈ 167 µM)
- IC50 (COLO 205): 65 µg/mL (≈ 137 µM)

SMILES: Cc1ccc(S(=O)(=O)/N=C(\S)Nc2ccc(Cl)c(Cl)c2)cc1
- IC50 (HepG2): 120 µg/mL (≈ 320 µM)
- Inhibition (MOLT-4 [1]): 39%
- IC50 (KB): 41 µg/mL (≈ 109 µM)
- IC50 (TSGH 8302): 55 µg/mL (≈ 147 µM)
- IC50 (COLO 205): 45 µg/mL (≈ 120 µM)

SMILES: O=S(=O)(N/C(=N\O)Nc1ccc(Cl)cc1)c1cc2ccccc2s1
- IC50 (MOLT-4 [2]): 57 µg/mL (≈ 149 µM)
- IC50 (HepG2): 176 µg/mL (≈ 461 µM)
- IC50 (KB): 55 µg/mL (≈ 144 µM)
- IC50 (TSGH 8302): 76 µg/mL (≈ 199 µM)
- IC50 (COLO 205): 80 µg/mL (≈ 209 µM)

SMILES: O=S(=O)(N/C(=N\O)Nc1ccc(Cl)cc1)c1ccccc1
- IC50 (MOLT-4 [2]): 7 µg/mL (≈ 21.5 µM)
- IC50 (HepG2): 54 µg/mL (≈ 166 µM)
- IC50 (KB): 46 µg/mL (≈ 141 µM)
- IC50 (TSGH 8302): 52 µg/mL (≈ 160 µM)
- IC50 (COLO 205): 53 µg/mL (≈ 163 µM)

SMILES: O=[N+]([O-])c1ccc(Oc2c(Cl)cc(S(=O)(=O)N/C(=N\O)Nc3ccc(Cl)cc3)cc2Cl)c(Cl)c1
- IC50 (MOLT-4 [2]): 56 µg/mL (≈ 98.9 µM)
- IC50 (HepG2): 49 µg/mL (≈ 86.5 µM)
- IC50 (KB): 7 µg/mL (≈ 12.4 µM)
- IC50 (TSGH 8302): 7 µg/mL (≈ 12.4 µM)
- IC50 (COLO 205): 6 µg/mL (≈ 10.6 µM)
- Body weight change (Mus musculus [3]): 1.3 g
- inhibition in vivo at 300 mg/kg (Mus musculus [4]): 70.7%

SMILES: CCCCOc1ccc(S(=O)(=O)N/C(=N\O)Nc2ccc(Cl)cc2)cc1
- IC50 (MOLT-4 [2]): 18 µg/mL (≈ 45.2 µM)
- IC50 (HepG2): 63 µg/mL (≈ 158 µM)
- IC50 (KB): 50 µg/mL (≈ 126 µM)
- IC50 (TSGH 8302): 37 µg/mL (≈ 93 µM)
- IC50 (COLO 205): 49 µg/mL (≈ 123 µM)
